Assay results as given in patent publication US20170190671A1, “BIS(ARYL)CATECHOL DERIVATIVES AS HERBICIDES” (E I DU PONT DE NEMOURS AND COMPANY, priority 2014, published 2017).

Legend:
[1] = system: spring wheat (Triticum aestivum); assay: Test D postemergence; assay type: in vivo; details: scale 0 to 100
Text: (§1) Seeds of plant species selected from bluegrass (annual bluegrass, Poa annua), blackgrass (Alopecurus myosuroides), canarygrass (Phalaris minor), chickweed (common chickweed, Stellaria media), cutleaf geranium (Geranium dissectum), galium (catchweed bedstraw, Galium aparine), downy bromegrass (Bromus tectorum), field poppy (Papaver rhoeas), field violet (Viola arvensis), green foxtail (Setaria viridis), deadnettle (henbit deadnettle, Lamium amplexicaule), Italian ryegrass (Lolium multiflorum), kochia (Kochia scoparia), lambsquarters (Chenopodium album), oilseed rape (Brassica napus), pigweed (Amaranthus retroflexus), chamomile (scentless chamomile, Matricaria inodora), Russian thistle (Salsola kali), speedwell (bird's-eye speedwell, Veronica persica), spring barley (Hordeum vulgare), spring wheat (Triticum aestivum), wild buckwheat (Polygonum convolvulus), wild mustard (Sinapis arvensis), wild oat (Avenafatua), wild radish (Raphanus raphanistrum), windgrass (Apera spica-venti), winter barley (Hordeum vulgare), and winter wheat (Triticum aestivum) were planted into a silt loam soil and treated preemergence with test chemicals formulated in a non-phytotoxic solvent mixture which included a surfactant.
(§2) At the same time, these species were planted in pots containing Redi-Earth® planting medium (Scotts Company, 14111 Scottslawn Road, Marysville, Ohio 43041) comprising spaghnum peat moss, vermiculite, wetting agent and starter nutrients and treated with postemergence applications of the test chemicals formulated in the same manner. Plants ranged in height from 2 to 18 cm (1- to 4-leaf stage). Treated plants and controls were maintained in a controlled growth environment for 14 to 21 days after which time all species were compared to controls and visually evaluated. Plant response ratings, summarized in Table D, are based on a scale of 0 to 100 where 0 is no effect and 100 is complete control. A dash (-) response means no test result.

[2] = system: wild oat (Avenafatua); assay: Test D postemergence; assay type: in vivo, Avena fatua; details: scale 0 to 100
Text: as §1, §2

[3] = system: horseweed (Conyza canadensis); assay: Test E preemergence; assay type: in vivo; details: 31 g ai/ha, scale 0 to 100
How it was run: (§3)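 Visual ratings from 0 = no effect to 100 = complete control, scored against untreated controls after 14 to 21 days in the greenhouse. Compounds, in a non-phytotoxic solvent mix with surfactant, went onto silt loam soil right after sowing (preemergence) or onto 2–18 cm plants at the 1- to 4-leaf stage (postemergence).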

[4] = system: johnsongrass (Sorghum halepense); assay: Test E preemergence; assay type: in vivo; details: scale 0 to 100
How it was run: as §3

[5] = system: wild poinsettia (Euphorbia heterophylla); assay: Test E preemergence; assay type: in vivo; details: scale 0 to 100
How it was run: as §3

[6] = system: Brazilian crabgrass (Digitaria horizontalis); assay: Test E postemergence; assay type: in vivo; details: scale 0 to 100
How it was run: as §3

[7] = system: ragweed (common ragweed, Ambrosia elatior); assay: Test E postemergence; assay type: in vivo; details: scale 0 to 100
How it was run: as §3

SMILES: Fc1cccc(Oc2ncc(C(F)(F)F)cn2)c1Oc1ncc(Cl)cn1 [Compound 42, 5-chloro-2-[2-fluoro-6-[[5-(trifluoromethyl)-2-pyrimidinyl]oxy]phenoxy]pyrimidine]
- Plant response rating, Wheat, Spring ([1]; 16 g ai/ha): 0
- Plant response rating, Wheat, Spring ([1]; 31 g ai/ha): 5
- Plant response rating, Wheat, Spring ([1]; 62 g ai/ha): 5
- Plant response rating, Wheat, Spring ([1]; 125 g ai/ha): 15
- Plant response rating, Oat, Wild ([2]; 16 g ai/ha): 25
- Plant response rating, Oat, Wild ([2]; 31 g ai/ha): 45
- Plant response rating, Oat, Wild ([2]; 62 g ai/ha): 40
- Plant response rating, Oat, Wild ([2]; 125 g ai/ha): 70
- Plant response rating, Horseweed [3]: 0
- Plant response rating, Johnsongrass ([4]; 16 g ai/ha): 80
- Plant response rating, Johnsongrass ([4]; 31 g ai/ha): 80
- Plant response rating, Johnsongrass ([4]; 62 g ai/ha): 95
- Plant response rating, Johnsongrass ([4]; 125 g ai/ha): 100
- Plant response rating, Poinsettia, Wild ([5]; 16 g ai/ha): 20
- Plant response rating, Poinsettia, Wild ([5]; 31 g ai/ha): 20
- Plant response rating, Poinsettia, Wild ([5]; 62 g ai/ha): 80
- Plant response rating, Poinsettia, Wild ([5]; 125 g ai/ha): 100
- Plant response rating, Crabgrass, Brazil ([6]; 16 g ai/ha): 10
- Plant response rating, Crabgrass, Brazil ([6]; 31 g ai/ha): 10
- Plant response rating, Crabgrass, Brazil ([6]; 62 g ai/ha): 20
- Plant response rating, Crabgrass, Brazil ([6]; 125 g ai/ha): 30
- Plant response rating, Ragweed ([7]; 16 g ai/ha): 10
- Plant response rating, Ragweed ([7]; 31 g ai/ha): 25
- Plant response rating, Ragweed ([7]; 62 g ai/ha): 50
- Plant response rating, Ragweed ([7]; 125 g ai/ha): 60
